# Laboratory results: patent publication EP0341019A2, “Polyether antibiotic” (priority 1988, dated 1989)
# Experiments:
# [1] = test system: Great Lakes influenza virus; type: cell-based; conditions: tissue culture
# [2] = test system: Clostridium difficile 2994; type: cell-based; conditions: Clostridioides difficile, 24-hour incubation
# Description: (§1) The formula 1 compounds (A82810 compounds) have antibacterial and anticoccidial activity. A82810 compounds are especially active against anaerobic bacteria. […]
# [3] = test system: Salmonella sp; type: cell-based; conditions: 24-hour incubation
# Description: as §1
# [4] = test system: Clostridium septicum 1128; type: cell-based; conditions: 24-hour incubation
# Description: as §1
# [5] = test system: Shigella sonnei; type: cell-based; conditions: 24-hour incubation
# Description: as §1
# [6] = test system: Escherichia coli TEM; type: cell-based; conditions: 24 h
# [7] = test system: Eimeria acervulina H & C and Eimeria tenella Wis; assay: anticoccidial feed test in infected chickens, ionophore-sensitive strains; type: in vivo
# [8] = test system: Haemophilus influenzae C.L.; type: cell-based; conditions: 24 h
# [9] = test system: Escherichia coli EC14; type: cell-based; conditions: EC14, 24 h
# [10] = test system: Enterobacter aerogenes EB17; type: cell-based; conditions: Klebsiella aerogenes, EB17, 24 h
# [11] = test system: Fusobacterium necrophorum 6054A; type: cell-based; conditions: 24 h
# [12] = test system: Klebsiella sp.; type: cell-based; conditions: 24 h
# [13] = test system: Streptococcus faecalis 2041; type: cell-based; conditions: Enterococcus faecalis, 2041, 24 h
# [14] = test system: E. acervulina Strain FS-316; assay: anticoccidial feed test in infected chickens, ionophore-resistant strain; type: in vivo
# [15] = test system: Friend leukemia virus; assay: antiviral tissue-culture test; type: cell-based
# [16] = test system: Streptococcus pneumoniae Park 1; type: cell-based; conditions: 24 h
# [17] = test system: Herpes simplex viruses (HSV II); assay: antiviral tissue-culture test; type: cell-based, Herpes simplex virus
# [18] = test system: Treponema hyodysenteriae; assay: growth inhibition of swine dysentery agent; type: cell-based
# Description: In another aspect the A82810 compounds are useful in the treatments of swine dysentery. A82810 inhibits the growth of Treponema hyodysenteriae, a causative agent of swine dysentery, at levels as low as 1.56 mcg/mL. A preferred method of administration to swine is by incorporation of an appropriate amount of an A82810 compound into the feed ration or drinking water. An appropriate amount will relate to whether the treatment is to prevent or to cure infection. Usually, a lower concentration of active compound is needed to prevent infection than is required for to eliminate infection in animals already afflicted. In general, amounts in the range of from about 20 to about 100 grams of A82810 compound per ton of feed are effective to prevent infection. Amounts in the range of from about 100 to about 500 g of A82810 compound per ton of feed are recommended for treating swine suffering from dysentery. These amounts provide from about 1 to about 5 mg/kg of body weight per day (prophylactic treatment) or from about 5 to about 25 mg/kg of body weight per day (treatment of infected animal). When added to the drinking water, amounts of from about 0.04 to about 0.2 g (prophylactic) or from about 0.2 to about 1 g (therapeutic) of A82810 compound per gallon of water are recommended.
# [19] = test system: Eimeria maxima Strain FS-410; assay: anticoccidial feed test in infected chickens, ionophore-resistant strain; type: in vivo
# [20] = test system: Bacteroides fragilis 1877; type: cell-based; conditions: Bacteroides fragilis, 1877, 24 h
# [21] = test system: Eimeria maxima Strain FS-177; assay: anticoccidial feed test in infected chickens, ionophore-sensitive strain; type: in vivo
# [22] = test system: Bacteroides fragilis 1936B; type: cell-based; conditions: 24 h
# [23] = test system: E. maxima Strain LIT-626; assay: anticoccidial feed test in infected chickens, ionophore-resistant strain; type: in vivo
# [24] = test system: Bacteroides melaninogenicus 2736; type: cell-based; conditions: 2736, 24 h
# [25] = test system: Brazil influenza virus; type: cell-based; conditions: tissue culture
# [26] = test system: Staphylococcus aureus V41; type: cell-based; conditions: V41, 24 h
# [27] = test system: Staphylococcus aureus X400; type: cell-based; conditions: X400, 24 h
# [28] = test system: Peptococcus asaccharolyticus 1302; type: cell-based; conditions: Peptoniphilus asaccharolyticus, 1302, 24 h
# [29] = test system: Staphylococcus epidermidis 270; type: cell-based; conditions: Staphylococcus epidermidis, 270, 24 h
smiles,measurement,setting,value
CC[C@@H](O)[C@]1(C)C[C@H](C)[C@@](O)([C@H]2C[C@H](C)[C@H]([C@]3(C)C[C@@H](O[C@H]4CC[C@H](OC)[C@@H](C)O4)[C@H]([C@]4(C)CC[C@@]5(O[C@H]([C@@H](C)[C@@H](OC)[C@H](C)C(=O)O)[C@H](C)[C@@H](OC)[C@H]5C)O4)O3)O2)O1 [Example A82810],active at a level of,[1],250 µg/mL
same,MIC,[2],0.5 µg/mL
same,MIC,[3],> 128 µg/mL
same,MIC,[4],0.5 µg/mL
same,MIC,[5],2 µg/mL
same,MIC,[6],> 128 µg/mL
same,AVERAGE INTESTINAL LESION SCORES,[7]; 2 ppm,1.2
same,"WEIGHT GAIN, PERCENT OF CONTROL",[7]; 2 ppm,98% OF CONTROL
same,AVERAGE INTESTINAL LESION SCORES,[7]; 6 ppm,0.4
same,"WEIGHT GAIN, PERCENT OF CONTROL",[7]; 6 ppm,91% OF CONTROL
same,AVERAGE INTESTINAL LESION SCORES,[7]; 10 ppm,0.3
same,"WEIGHT GAIN, PERCENT OF CONTROL",[7]; 10 ppm,80% OF CONTROL
same,MIC,[8],128 µg/mL
same,MIC,[9],8 µg/mL
same,MIC,[10],8 µg/mL
same,MIC,[11],≤ 0.25 µg/mL
same,MIC,[12],> 128 µg/mL
same,MIC,[13],1 µg/mL
same,AVERAGE INTESTINAL LESION SCORES,[14]; 0.5 ppm,7.3
same,"WEIGHT GAIN, PERCENT OF CONTROL",[14]; 0.5 ppm,72% OF CONTROL
same,AVERAGE INTESTINAL LESION SCORES,[14]; 1 ppm,7.8
same,"WEIGHT GAIN, PERCENT OF CONTROL",[14]; 1 ppm,73% OF CONTROL
same,AVERAGE INTESTINAL LESION SCORES,[14]; 1.5 ppm,7.9
same,"WEIGHT GAIN, PERCENT OF CONTROL",[14]; 1.5 ppm,73% OF CONTROL
same,AVERAGE INTESTINAL LESION SCORES,[14]; 2 ppm,8.8
same,"WEIGHT GAIN, PERCENT OF CONTROL",[14]; 2 ppm,76% OF CONTROL
same,active at levels as low as,[15],0.04 µg/mL
same,MIC,[16],1 µg/mL
same,active at levels as low as,[17],1.56 µg/mL
same,inhibits the growth at levels as low as,[18],1.56 µg/mL
same,AVERAGE INTESTINAL LESION SCORES,[19]; 1.25 ppm,4.0
same,"WEIGHT GAIN, PERCENT OF CONTROL",[19]; 1.25 ppm,93% OF CONTROL
same,AVERAGE INTESTINAL LESION SCORES,[19]; 1.5 ppm,3.3
same,INTESTINAL LESION SCORE,[19]; 1.5 ppm,4.0
same,AVERAGE INTESTINAL LESION SCORES,[19]; 1.75 ppm,3.8
same,"WEIGHT GAIN, PERCENT OF CONTROL",[19]; 1.75 ppm,91% OF CONTROL
same,INTESTINAL LESION SCORE,[19]; 2 ppm,4.0
same,LESION SCORE,[19]; 2 ppm,2.3
same,PERCENT REDUCTION IN OOCYST PRODUCTION,[19]; 2 ppm,18%
same,AVERAGE INTESTINAL LESION SCORES,[19]; 2.5 ppm,3.8
same,"WEIGHT GAIN, PERCENT OF CONTROL",[19]; 2.5 ppm,90% OF CONTROL
same,AVERAGE INTESTINAL LESION SCORES,[19]; 3 ppm,3.1
same,"WEIGHT GAIN, PERCENT OF CONTROL",[19]; 3 ppm,88% OF CONTROL
same,AVERAGE INTESTINAL LESION SCORES,[19]; 3.5 ppm,3.5
same,"WEIGHT GAIN, PERCENT OF CONTROL",[19]; 3.5 ppm,88% OF CONTROL
same,AVERAGE INTESTINAL LESION SCORES,[19]; 5 ppm,4.0
same,"WEIGHT GAIN, PERCENT OF CONTROL",[19]; 5 ppm,74% OF CONTROL
same,AVERAGE INTESTINAL LESION SCORES,[19]; 6 ppm,4.0
same,LESION SCORE,[19]; 6 ppm,2.7
same,PERCENT REDUCTION IN OOCYST PRODUCTION,[19]; 6 ppm,18%
same,LESION SCORE,[19]; 10 ppm,2.4
same,PERCENT REDUCTION IN OOCYST PRODUCTION,[19]; 10 ppm,36%
same,"WEIGHT GAIN, PERCENT OF CONTROL",[19]; 10 ppm,88% OF CONTROL
same,MIC,[20],8 µg/mL
same,AVERAGE INTESTINAL LESION SCORES,[21]; 2 ppm,1.9
same,AVERAGE INTESTINAL LESION SCORES,[21]; 6 ppm,0.6
same,"WEIGHT GAIN, PERCENT OF CONTROL",[21]; 6 ppm,108% OF CONTROL
same,AVERAGE INTESTINAL LESION SCORES,[21]; 10 ppm,0.2
same,"WEIGHT GAIN, PERCENT OF CONTROL",[21]; 10 ppm,102% OF CONTROL
same,MIC,[22],8 µg/mL
same,AVERAGE INTESTINAL LESION SCORES,[23]; 1.25 ppm,3.7
same,"WEIGHT GAIN, PERCENT OF CONTROL",[23]; 1.25 ppm,99% OF CONTROL
same,AVERAGE INTESTINAL LESION SCORES,[23]; 1.5 ppm,3.3
same,"WEIGHT GAIN, PERCENT OF CONTROL",[23]; 1.5 ppm,102% OF CONTROL
same,AVERAGE INTESTINAL LESION SCORES,[23]; 1.75 ppm,4.0
same,"WEIGHT GAIN, PERCENT OF CONTROL",[23]; 1.75 ppm,101% OF CONTROL
same,AVERAGE INTESTINAL LESION SCORES,[23]; 2 ppm,3.3
same,"WEIGHT GAIN, PERCENT OF CONTROL",[23]; 2 ppm,94% OF CONTROL
same,MIC,[24],8 µg/mL
same,active at a level of,[25],250 µg/mL
same,MIC,[26],1 µg/mL
same,MIC,[27],1 µg/mL
same,MIC,[28],≤ 0.25 µg/mL
same,MIC,[29],1 µg/mL
